Experimental data published in DBAASP.
Values after ≈ are worked out from the molar mass of the structure shown. Values joined by “and” are separate entries in the source; they are usually repeats but may differ in a detail not shown here. Identical values can stand only once.

Experiments:
Test in all cases: ≥ marks a high value that may be exact or a test limit, other limits are often not marked, values filed in µg/mL are converted to µM
[1] = tested on: Candida tropicalis CCARM 14019
[2] = tested on: Bacillus megaterium CIP 6620
[3] = tested on: Corynebacterium stationis CIP 101282
Escherichia coli SBS 363 = tested on: Escherichia coli SBS 363
[4] = tested on: Microbacterium maritypicum CIP 105733T
[5] = tested on: Micrococcus luteus CIP 5345
[6] = tested on: Staphylococcus aureus CIP 103428
[7] = tested on: Staphylococcus aureus SG511
[8] = tested on: Staphylococcus haemolyticus
[9] = tested on: Vibrio nigripulchritudo CIP 103195
[10] = tested on: Vibrio splendidus CIP 107715
[11] = tested on: Fusarium graminearum PH-1
Escherichia coli AB94012 = tested on: Escherichia coli AB94012
[12] = tested on: Escherichia coli ATCC 25922
[13] = tested on: Pseudomonas aeruginosa AB93066
[14] = tested on: Pseudomonas aeruginosa ATCC 9027
[15] = tested on: Staphylococcus aureus AB94004
[16] = tested on: Staphylococcus aureus ATCC 25923
[17] = tested on: Staphylococcus aureus ATCC 6538
[18] = tested on: Staphylococcus aureus P1374
[19] = tested on: Staphylococcus aureus P1381
Bacillus subtilis 168 = tested on: Bacillus subtilis 168
[20] = tested on: Candida albicans F7-39/IDE99
Escherichia coli B = tested on: Escherichia coli B
[21] = tested on: Micrococcus luteus CCM 144
Pseudomonas aeruginosa = tested on: Pseudomonas aeruginosa
Staphylococcus aureus = tested on: Staphylococcus aureus
[22] = tested on: Candida albicans ATCC 10231
[23] = tested on: Cryptococcus neoformans ATCC 32264
Escherichia coli = tested on: Escherichia coli
[24] = tested on: Pseudomonas aeruginosa ATCC 27853
[25] = tested on: Salmonella enterica subsp. enterica serovar Enteritidis
Salmonella sp. = tested on: Salmonella sp.
[26] = tested on: Staphylococcus aureus ATCC 29213
[27] = tested on: Staphylococcus aureus ATCC 33591
[28] = tested on: Staphylococcus aureus ATCC 43300
Yersinia enterocolitica = tested on: Yersinia enterocolitica
Burkholderia cepacia = tested on: Burkholderia cepacia
Delftia acidovorans = tested on: Delftia acidovorans
[29] = tested on: Elizabethkingia meningoseptica
[30] = tested on: Pseudomonas aeruginosa 6206
[31] = tested on: Pseudomonas aeruginosa 6294
[32] = tested on: Pseudomonas aeruginosa ATCC 19660
[33] = tested on: Pseudomonas aeruginosa PAER1
Staphylococcus aureus 31 = tested on: Staphylococcus aureus 31
Staphylococcus aureus 38 = tested on: Staphylococcus aureus 38
[34] = tested on: Stenotrophomonas maltophilia

CC(C)C[C@H](NC(=O)CNC(=O)[C@H](Cc1cnc[nH]1)NC(=O)[C@H](Cc1cnc[nH]1)NC(=O)[C@H](CCCN=C(N)N)NC(=O)[C@H](CCCCN)NC(=O)[C@H](C)N)C(=O)N[C@@H](CC(N)=O)C(=O)N[C@@H](CS)C(=O)N[C@@H](C)C(=O)N[C@@H](CCCCN)C(=O)N[C@@H](Cc1ccccc1)C(=O)N[C@@H](Cc1cnc[nH]1)C(N)=O [AKRHHGLNCAKFH]
MIC [1]: 0.466 µM and 0.931 µM

CC[C@H](C)[C@H](NC(=O)[C@@H]1CCCN1C(=O)CN)C(=O)N[C@@H](CCCN=C(N)N)C(=O)N[C@@H](CCCN=C(N)N)C(=O)N1CCC[C@H]1C(=O)N[C@@H](CCC(=O)O)C(=O)N1CCC[C@H]1C(=O)N[C@@H](CCCN=C(N)N)C(=O)N1CCC[C@H]1C(=O)N[C@@H](CCCN=C(N)N)C(=O)N1CCC[C@H]1C(=O)N[C@@H](CCC(=O)O)C(=O)O [GPIRRPEPRPRPE]
MIC [2]: 20 µM (≈ 31.1 µg/mL) | MIC [3]: 20 µM (≈ 31.1 µg/mL) | MIC (Escherichia coli SBS 363): ≥ 80 µM | MIC [4]: 20 µM (≈ 31.1 µg/mL) | MIC [5]: ≥ 80 µM | MIC [6]: 20 µM (≈ 31.1 µg/mL) | MIC [7]: 20 µM (≈ 31.1 µg/mL) | MIC [8]: 20 µM (≈ 31.1 µg/mL) | MIC [9]: ≥ 40 µM | MIC [10]: ≥ 40 µM

NC(N)=NCCC[C@H](NC(=O)[C@H](Cc1ccccc1)NC(=O)[C@H](CC(=O)O)NC(=O)[C@H](CC(=O)O)NC(=O)[C@@H](N)CCCN=C(N)N)C(=O)O [RDDFR]
MIC [11]: ≥ 96 µM

CC[C@H](C)[C@H](NC(=O)CN)C(=O)N[C@@H](CC(C)C)C(=O)NCC(=O)N[C@@H](CCCCN)C(=O)N[C@@H](CC(C)C)C(=O)N[C@@H](Cc1c[nH]c2ccccc12)C(=O)N[C@@H](CCCCN)C(=O)NCC(=O)N[C@H](C(=O)N[C@@H](CCCCN)C(=O)N[C@@H](CO)C(=O)N[C@H](C(=O)N[C@@H](Cc1ccccc1)C(N)=O)[C@@H](C)CC)C(C)C [GILGKLWKGVKSIF]
MIC (Escherichia coli AB94012): 16.2 µM (≈ 25 µg/mL) | MIC [12]: 64.7 µM (≈ 99.9 µg/mL) | MIC [13]: ≥ 32.3 µM | MIC [14]: 16.2 µM (≈ 25 µg/mL) | MIC [15]: 4.04 µM (≈ 6.25 µg/mL) | MIC [16]: 8.09 µM (≈ 12.5 µg/mL) | MIC [17]: 4.04 µM (≈ 6.25 µg/mL) | MIC [18]: 4.04 µM (≈ 6.25 µg/mL) | MIC [19]: 4.04 µM (≈ 6.25 µg/mL)

CC[C@H](C)[C@H](NC(=O)[C@H](CC(C)C)NC(=O)[C@H](CCCCN)NC(=O)[C@@H](NC(=O)[C@@H](NC(=O)[C@H](Cc1cnc[nH]1)NC(=O)[C@@H]1CCCN1C(=O)[C@H](CC(C)C)NC(=O)[C@@H](NC(=O)[C@H](CCCCN)NC(=O)[C@H](C)NC(=O)[C@H](CC(C)C)NC(=O)[C@H](CCCCN)NC(=O)[C@H](CO)NC(=O)[C@H](C)NC(=O)[C@H](CCSC)NC(=O)CN)C(C)C)C(C)C)C(C)C)C(=O)N[C@@H](CCCCN)C(=O)O [GMASKLAKVLPHVVKLIK]
MIC (Bacillus subtilis 168): 3.1 µM (≈ 5.99 µg/mL) | MIC [20]: ≥ 56.3 µM | MIC (Escherichia coli B): 2.9 µM (≈ 5.6 µg/mL) | MIC [21]: 1.4 µM (≈ 2.71 µg/mL) | MIC (Pseudomonas aeruginosa): 100 µM (≈ 193 µg/mL) | MIC (Staphylococcus aureus): 35 µM (≈ 67.6 µg/mL)

CC[C@H](C)[C@H](NC(=O)[C@H](CCCCN)NC(=O)[C@@H](NC(=O)[C@H](CCC(N)=O)NC(=O)[C@@H](N)CCCCN)[C@@H](C)CC)C(=O)N[C@@H](Cc1c[nH]c2ccccc12)C(=O)N[C@@H](Cc1ccccc1)C(=O)N[C@@H](CCC(N)=O)C(=O)N[C@@H](CC(N)=O)C(=O)N[C@@H](CCCCN)C(=O)N[C@@H](CCCCN)C(=O)N[C@@H](CCSC)C(=O)N[C@@H](CCCCN)C(=O)N[C@@H](Cc1c[nH]c2ccccc12)C(=O)N[C@@H](CCCCN)C(=O)N[C@@H](CCCCN)C(N)=O [KQIKIWFQNKKMKWKK]
MIC [22]: 50 µM (≈ 108 µg/mL) | MIC [23]: ≥ 50 µM | MIC [12]: 64 µM and 50 µM | MIC (Escherichia coli): 17.7 µM (≈ 38.2 µg/mL) | MIC [24]: > 50 µM | MIC [25]: 25 µM (≈ 54 µg/mL) | MIC (Salmonella sp.): ≥ 50 µM | MIC [26]: > 50 µM | MIC [27]: ≥ 256 µM | MIC [28]: > 50 µM | MIC (Yersinia enterocolitica): ≥ 50 µM

NCCCC[C@H](NC(=O)[C@H](CCCN=C(N)N)NC(=O)[C@H](CCCCN)NC(=O)[C@H](CC(N)=O)NC(=O)[C@@H](N)CCCCN)C(=O)N[C@@H](CCCN=C(N)N)C(=O)N[C@@H](CCCN=C(N)N)C(=O)N[C@@H](CCCN=C(N)N)C(=O)N[C@@H](CCCN=C(N)N)C(=O)N[C@@H](CCCN=C(N)N)C(=O)N[C@@H](CCCN=C(N)N)C(=O)NCC(=O)NCC(=O)N[C@@H](CCCN=C(N)N)C(=O)N[C@@H](CCCN=C(N)N)C(=O)N[C@@H](CCCN=C(N)N)C(=O)N[C@@H](CCCN=C(N)N)C(=O)O [KNKRKRRRRRRGGRRRR]
MIC (Burkholderia cepacia): ≥ 426 µM | MIC (Delftia acidovorans): ≥ 426 µM | MIC [29]: ≥ 213 µM | MIC [30]: 26.6 µM (≈ 62.5 µg/mL) | MIC [31]: ≥ 106 µM | MIC [32]: 26.6 µM (≈ 62.5 µg/mL) | MIC [33]: ≥ 106 µM | MIC (Staphylococcus aureus 31): ≥ 106 µM | MIC (Staphylococcus aureus 38): ≥ 106 µM | MIC [17]: 53.2 µM (≈ 125 µg/mL) | MIC [34]: 13.3 µM (≈ 31.2 µg/mL)
